One test has as its target T1, 5-HT2B receptor (Homo sapiens, UniProt P41595).
T1 construct: expressed in transfected cells
In words: 5-HT2B functional assay (Fluo-4 calcium, FDSS). It counts as cell-based. As to the method:
Cells with inducible expression of target receptor were cultured in 175‐cm^2 flasks until ≈80% confluence, washed once with phosphate‐buffered saline (PBS), and dissociated using 0.25% trypsin–EDTA. After neutralization with culture medium and centrifugation (800 rpm, 3 min), the cells were resuspended, counted, and seeded onto poly‐D‐lysine‐coated 96‐well black plates at a density of 4 × 10^4 cells/well. Expression of the target receptor was induced with 1 µg mL^−1 doxycycline. After 30 min at room temperature, the plates were incubated at 37 °C, 5% CO2 for 18−24 h until reaching ≈90% confluence. The medium was replaced with Ca^2⁺‐free extracellular buffer, washed once, and incubated with Fluo‐4 AM for 60 min at 37 °C in the dark. After washing twice with extracellular buffer, extracellular buffer was added (80 µL/well), and the cells were incubated for an additional 20 min at room temperature before fluorescence recording. Real‐time fluorescence changes were recorded using an FDSS/µCell system at 480 nm excitation and 540 nm emission with a sampling rate of 1 Hz. After a 10‐s baseline, the test compounds were added (20 µL/well), and fluorescence was recorded for 180 s. Subsequently, […] was added (20 µL/well), and the signals were monitored for a total of 360 s.
The agonistic effect (%) of compounds was calculated as follows: (1) Agonist%=Rcompound−Rcontrol/Rcontrol×100% where R control is the maximal fluorescence ratio after the addition of 0.5% DMSO and R compoundis the ratio obtained after compound treatment. Fluorescence response curves and EC50 values were used to evaluate the agonistic potency. The extracellular (Ca^2+‐free) buffer contained (in mM): 140 NaCl, 5 KCl, 1 MgCl2, 10 glucose, 10 HEPES, 2 probenecid; pH adjusted to 7.4 with NaOH.

The subject of a further test is C57BL/6J mice after CSDS. In words: CSDS model, social interaction test. It counts as in vivo. How it is done: The 10‐day CSDS paradigm was conducted as previously described.^[ [24] ^] CD‐1 aggressive mice were singly housed in defeat cages on one side of a perforated plexiglass partition 24 h before the defeat session. Experimental C57BL/6J mice were placed daily on the resident cage side of a novel CD‐1 aggressor that rapidly initiated a physical attack on the intruder. After 10‐min of social defeat, the intruder mice were housed on the opposite side of the partition within a shared home cage, experiencing further sensory contact for the subsequent 24 h. In contrast, control mice were maintained in their home cages and allowed to explore the empty defeat cages for 10 min each day.
C57BL/6J mice, comprising both control and experimental groups, were placed individually into the social open field with a plexiglass enclosure positioned along the side wall. Movement parameters, including the time spent in the interaction zone, corner zones, and locomotion, were monitored and analyzed over the two test sessions using the AnyMaze Tracking System. In the first session, the mice freely explored the arena for 2.5 min. Then, a new aggressive CD‐1 mouse was introduced into the plexiglass enclosure, and the experimental mice returned to the arena for the second 2.5‐min session. The social interaction ratio was determined as the ratio between the time the experimental mice spent in the interaction zone when the target CD‐1 was present and the time spent in the zone when it was absent.

In a further test the test system is Kir4.1 cKO astrocytes. The experiment in a line: Patch clamp of Kir4.1 cKO primary astrocytes. It counts as cell-based, mouse. To be noted: tamoxifen-treated Kir4.1 cKO astrocytes, 3 µM. How it is done: Astrocytes were isolated and cultured as previously described.^[ [16] ^] Briefly, the cortices from P1‐P4 mouse pups were dissected and incubated for 25 min in Hank's Balanced Salt Solution (22.5 ml) with 2.5% trypsin (2.5 ml) at 37 °C. Cells were dissociated in cultured medium (DMEM/F12 supplemented with 10% fetal bovine serum and 1% penicillin and streptomycin) and filtered with a 70‐µm cell strainer. Cell suspensions were cultured in PDL‐pretreated 75‐cm^2 flasks for the initial seven days, with half of the medium replaced every 2 days. Subsequently, the cultures were shaken at 220 rpm for 6 h at 37 °C to remove microglia and oligodendrocytes from the astrocyte layers. […]
Whole‐cell patch‐clamp recordings were obtained either in transiently transfected CHO‐K1 cells or in primary cultured astrocytes at room temperature using standard patch‐clamp techniques with an Axopatch‐700B amplifier (Axon Instruments). […] Macroscopic currents generated by expressed potassium channels were recorded under the voltage‐clamp conditions with an internal pipette solution composed of (in mM): 140 KCl, 5 NaCl, 1 CaCl2, 1 MgCl2, 10 HEPES, and 10 EGTA, pH 7.2 adjusted with KOH. […] Astrocytic resting membrane potentials were recorded under current‐clamp conditions (I = 0 pA) using standard internal and external solutions, determined immediately after achieving whole‐cell mode.
In general terms: The patch-clamp technique gives a direct electrical read-out from membranes.

Structures are written as SMILES. Several values for one entry are separate records, joined by “and”; a condition that tells them apart may be missing. Equal entries are not always repeated. Some results are limits rather than exact numbers.

T1 sequence (P41595 whole entry): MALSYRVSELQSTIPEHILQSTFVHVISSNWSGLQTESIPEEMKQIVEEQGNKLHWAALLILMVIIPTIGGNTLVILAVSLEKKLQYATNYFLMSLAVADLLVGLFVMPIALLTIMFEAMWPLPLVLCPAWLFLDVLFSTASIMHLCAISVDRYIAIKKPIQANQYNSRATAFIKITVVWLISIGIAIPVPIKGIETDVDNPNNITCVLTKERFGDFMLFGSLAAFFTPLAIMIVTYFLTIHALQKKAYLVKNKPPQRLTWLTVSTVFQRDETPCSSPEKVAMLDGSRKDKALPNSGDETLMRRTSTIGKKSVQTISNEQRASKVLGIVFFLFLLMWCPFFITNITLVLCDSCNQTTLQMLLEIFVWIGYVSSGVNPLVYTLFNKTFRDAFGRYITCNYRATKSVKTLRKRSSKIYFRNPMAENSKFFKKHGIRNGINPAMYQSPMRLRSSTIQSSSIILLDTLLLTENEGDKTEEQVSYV

Turning to `c1ccc2c(c1)oc1ccc(Nc3ccnc(NCCCN4CCOCC4)n3)cc12` [JX3212, N^4-(dibenzo[b,d]furan-2-yl)-N^2-(3-morpholinopropyl)pyrimidine-2,4-diamine], the EC50 (as a rule, the concentration at which the effect is half-maximal) at 5-HT2B receptor (agonistic effect) was greater than 60 µM. Further, the activation at 60 µM at 5-HT2B receptor (read-out: 5-HT2B agonistic effect, replicates, concentration 60 (presumably µM)) was determined as 55.2%. Further, the Emax at 5-HT2B receptor (read-out: 5-HT2B max activation%) is 62.4%. Moreover, the “SIT--Time in interaction zone (s), single mice” value with C57BL/6J mice after CSDS (10 mg/kg, session not given) was 83.5 s and 59.3 s and 49.8 s and 72.2 s and 60.4 s and 74.9 s and 82.2 s and 43.8 s. Also, the “CSDS: time spent in corners in SIT (in words)” value in the test with C57BL/6J mice after CSDS (single i.p. injection 10 mg kg−1) is “significant decrease in the time spent in corners”. Moreover, the “JX3212-induced effects in Kir4.1 cKO astrocytes (in words)” value with Kir4.1 cKO astrocytes is “abolished”.
